This is an account of results in the NIST ThermoML archive (doi:10.1016/j.jct.2012.07.006).

The conditions of series [1]: 298.15 K; 101.33 kPa; Liquid; Pycnometric method.
A short description of series [2]: excess molar enthalpy (molar enthalpy of mixing); xn = mol fraction of the nth substance listed. The settings on record: 298.15 K, 101 kPa, Liquid, Calvet calorimetry.

Numbers after ± are expanded uncertainties.

The term mass density denotes the mass of a sample divided by its volume. For `CCCCCCC` [heptane], the mass density in series [1] is listed as 679.71 ± 20 kg/m3.
Same read-out and setting: then `C1CCCCC1` [cyclohexane], with 773.96 ± 20 kg/m3.
With `CNc1ccccc1` [N-methylaniline] + Cc1ccccc1, the excess molar enthalpy in series [2] (x1 = 0.0991) worked out at 0.0535 ± 0.0012 kcal/mol; in series [2] (x1 = 0.1956), 0.088 ± 0.00191 kcal/mol; in series [2] (x1 = 0.2952), 0.11 ± 0.00239 kcal/mol; in series [2] (x1 = 0.399) it was 0.12 ± 0.00263 kcal/mol; in series [2] (x1 = 0.4973), 0.119 ± 0.00263 kcal/mol; in series [2] (x1 = 0.5922), 0.111 ± 0.00239 kcal/mol. For the same compound, the excess molar enthalpy in series [2] (x1 = 0.6882) turned out to be 0.0925 ± 0.00215 kcal/mol; in series [2] (x1 = 0.7892), 0.0686 ± 0.00143 kcal/mol; in series [2] (x1 = 0.8851) it was 0.0397 ± 0.000956 kcal/mol.
With `Cc1ccccc1` [toluene], the mass density in series [1] was 862.346 ± 24 kg/m3.
`CCCCCCCCCC` [decane]: in series [1], the mass density was 726.47 ± 20 kg/m3.
`CNc1ccccc1` [N-methylaniline] + CCCCCCC: the excess molar enthalpy in series [2] (x1 = 0.102) was determined as 0.196 ± 0.0043 kcal/mol; in series [2] (x1 = 0.1982) it was 0.309 ± 0.00669 kcal/mol; in series [2] (x1 = 0.2968), 0.368 ± 0.00789 kcal/mol; in series [2] (x1 = 0.3935) it was 0.395 ± 0.00837 kcal/mol; in series [2] (x1 = 0.4983), 0.401 ± 0.0086 kcal/mol; in series [2] (x1 = 0.5982) it was 0.382 ± 0.00813 kcal/mol. Further, the excess molar enthalpy worked out at 0.344 ± 0.00741 kcal/mol in series [2] (x1 = 0.6934), 0.269 ± 0.00574 kcal/mol in series [2] (x1 = 0.7941) and 0.162 ± 0.00359 kcal/mol in series [2] (x1 = 0.8939).
With `CCCCCCCC` [octane], the mass density in series [1] is reported as 698.75 ± 20 kg/m3.
Turning to `CNc1ccccc1` [N-methylaniline], the mass density in series [1] was determined as 982.237 ± 20 kg/m3.
On to `CNc1ccccc1` [N-methylaniline] + C1CCCCC1, for which the excess molar enthalpy in series [2] (x1 = 0.0978) was 0.197 ± 0.0043 kcal/mol; in series [2] (x1 = 0.1987) it was 0.31 ± 0.00669 kcal/mol; in series [2] (x1 = 0.2934) it was 0.364 ± 0.00789 kcal/mol; in series [2] (x1 = 0.4002), 0.385 ± 0.00813 kcal/mol; in series [2] (x1 = 0.4937), 0.389 ± 0.00837 kcal/mol; in series [2] (x1 = 0.5934) it was 0.368 ± 0.00789 kcal/mol. The excess molar enthalpy in series [2] (x1 = 0.6935) was found to be 0.313 ± 0.00669 kcal/mol; in series [2] (x1 = 0.7953), 0.232 ± 0.00502 kcal/mol; in series [2] (x1 = 0.8938), 0.136 ± 0.00287 kcal/mol.
Consider `CNc1ccccc1` [N-methylaniline] + CCCCCCCC, for which the excess molar enthalpy in series [2] (x1 = 0.1045) is 0.204 ± 0.0043 kcal/mol; in series [2] (x1 = 0.2002), 0.322 ± 0.00693 kcal/mol; in series [2] (x1 = 0.303), 0.388 ± 0.00837 kcal/mol; in series [2] (x1 = 0.4117), 0.419 ± 0.00884 kcal/mol; in series [2] (x1 = 0.4956), 0.424 ± 0.00908 kcal/mol; in series [2] (x1 = 0.5965) it was 0.405 ± 0.0086 kcal/mol. For the same compound, the excess molar enthalpy in series [2] (x1 = 0.6933) worked out at 0.361 ± 0.00765 kcal/mol; in series [2] (x1 = 0.791), 0.285 ± 0.00621 kcal/mol; in series [2] (x1 = 0.889) it was 0.184 ± 0.00406 kcal/mol.
For the compound `CCCCCCCCCCCCCCCC` [hexadecane], the mass density in series [1] is reported as 769.91 ± 20 kg/m3.
Still for that read-out and setting: then `CCCCCCCCCCCCCC` [tetradecane], with 759.19 ± 20 kg/m3.
In the case of `CNc1ccccc1` [N-methylaniline] + CCCCCCCCCC, the excess molar enthalpy in series [2] (x1 = 0.1015) worked out at 0.211 ± 0.00454 kcal/mol; in series [2] (x1 = 0.201), 0.34 ± 0.00717 kcal/mol; in series [2] (x1 = 0.2993), 0.413 ± 0.00884 kcal/mol; in series [2] (x1 = 0.3848), 0.448 ± 0.00956 kcal/mol; in series [2] (x1 = 0.487) it was 0.458 ± 0.0098 kcal/mol; in series [2] (x1 = 0.5963), 0.44 ± 0.00932 kcal/mol. For the same compound, the figures for the excess molar enthalpy in series [2] (x1 = 0.6951), in series [2] (x1 = 0.7934) and in series [2] (x1 = 0.8899) were 0.395 ± 0.00837 kcal/mol, 0.316 ± 0.00669 kcal/mol and 0.205 ± 0.0043 kcal/mol, respectively.
